Consider one molecule from patent US20180036289A1 (Gilead Sciences, Inc., priority 2016, published 2018).

The assay deals with cell lines tested. The experiment in a line: Cell proliferation assay, summary across all cell lines and drugs. As to conditions: compared to primary drug alone. It counts as cell-based. The procedure:
All cell lines were obtained from the American Type Culture Collection (ATCC) Manassas, Va. (US). Master and working cell banks (MCB and WCB) were prepared by subculturing in ATCC-recommended media and freezing protocols (www.atcc.org). Cell line stocks for the assays were prepared from the WCB. The MCB, WCBs and assay stocks were prepared within respectively 3, 6 and 9 passages of the ATCC vial.
Solid powders of reference compounds were weighed on a calibrated balance and dissolved in 100% DMSO. DMSO samples were stored at room temperature. At the day of the experiment, the compound stock was diluted in 3.16 fold steps in 100% DMSO to obtain a 9-point dilution series. This was further diluted 31.6 times in 20 mM sterile Hepes buffer pH 7.4. A volume of 5 μl was transferred to the cells to generate a test concentration range from 3.16×10^−5M to 3.16×10^−9 M in duplicate. The final DMSO concentration during incubation was […] in all wells.
An assay stock was thawed and diluted in its ATCC recommended medium and dispensed in a 384-well plate, depending on the cell line used, at a concentration of 200-3200 cells per well in 45 μl medium. For each used cell line the optimal cell density is used. The margins of the plate were filled with phosphate-buffered saline. Plated cells were incubated in a humidified atmosphere of 5% CO2 at 37° C. After 24 hours, 5 μl of compound dilution was added and plates were further incubated for another 120 hours. After 120 hours, 25 μl of ATPlite 1Step™ (PerkinElmer) solution was added to each well, and subsequently shaken for 2 minutes. After 10 minutes of incubation in the dark, the luminescence was recorded on an Envision multimode reader (PerkinElmer).
IC50s were calculated by non-linear regression using IDBS XLfit 5. The percentage growth after 120 h (%-growth) was calculated as follows: 100%×(luminescencet=120h/luminescenceuntreated,t=120h). This was fitted to the ^10log compound concentration (conc) by a 4-parameter logistics curve: %−growth=bottom+(top−bottom)/(1+10^(log IC50-conc)*hill)), where hill is the Hill-coefficient, and bottom and top the asymptotic minimum and maximum cell growth that the compound allows in that assay.

For `CC(C)c1nc(CN(C)C(=O)N[C@@H](CCN2CCOCC2)C(=O)N[C@H](CC[C@H](Cc2ccccc2)NC(=O)OCc2cncs2)Cc2ccccc2)cs1` [cobicistat], where the note is “maximum across all experiments”, the “increase in sensitivity to the primary drug, maximum” value amounted to 8.7 fold. Further, the “increase in sensitivity to the primary drug, average” value (on average, across all experiments) was 2.9 fold.
